From US9139589B2, “Heteroaryls and uses thereof” (Millennium Pharmaceuticals, Inc., priority 2009, dated 2015)

Target: T1, PI3Kalpha (Homo sapiens, UniProt P42336)
T1 construct: His (N); host or cells: SF9 insect cells (baculovirus co-infection)
Test: PI3K enzyme HTRF assay (PI3Kalpha)
Type: biochemical
Source text: Active phosphatidylinositol 3′ kinase (PI3K) enzyme is purified at Millennium Pharmaceuticals from SF9 insect cells (Invitrogen) co-infected with baculovirus containing amino-terminal His-tagged p110α and p85α expression constructs.
The PI3K enzyme HTRF® assay makes use of an energy transfer complex comprised of biotin-PI(3,4,5)P3, Europhium labeled anti-GST monoclonal antibody, a GST-tagged GRP1 pleckstrin homology (PH) domain, and Streptavidin-APC (allophycocyanin). Excitation of the Europium in the complex results in a stable time-resolved fluorescence resonance energy transfer (FRET) signal. Phosphatidylinositol 3,4,5 triphosphate (PI(3,4,5)P3, the product of PI3K, disrupts the energy transfer complex by competing with biotin-PI(3,4,5)P3 for binding to the GRP1 PH domain, resulting in a decreased fluorescent signal. Inhibitors of PI3K in the reaction prevent a decrease in the fluorescent signal.
PI3K enzyme (325 pM) is incubated with di-C8 PI(4,5)P2 substrate (3.5 μM, CellSignals, Inc.) in assay buffer (50 mM HEPES pH 7.0, 5 mM DTT, 150 mM NaCl, 10 mM β-glycerophosphate, 5 mM MgCl2, 0.25 mM sodium cholate, 0.001% CHAPS) containing 25 μM ATP and 0.5 μL of test compound (in 100% DMSO) at multiple concentrations in a final volume of 20.5 μL in 384 well plates for 30 min at 22-23° C. […] Fluorescent signal for each well is then measured on an LJL_Analyst (Molecular Devices). […]

T1 sequence (P42336 whole entry): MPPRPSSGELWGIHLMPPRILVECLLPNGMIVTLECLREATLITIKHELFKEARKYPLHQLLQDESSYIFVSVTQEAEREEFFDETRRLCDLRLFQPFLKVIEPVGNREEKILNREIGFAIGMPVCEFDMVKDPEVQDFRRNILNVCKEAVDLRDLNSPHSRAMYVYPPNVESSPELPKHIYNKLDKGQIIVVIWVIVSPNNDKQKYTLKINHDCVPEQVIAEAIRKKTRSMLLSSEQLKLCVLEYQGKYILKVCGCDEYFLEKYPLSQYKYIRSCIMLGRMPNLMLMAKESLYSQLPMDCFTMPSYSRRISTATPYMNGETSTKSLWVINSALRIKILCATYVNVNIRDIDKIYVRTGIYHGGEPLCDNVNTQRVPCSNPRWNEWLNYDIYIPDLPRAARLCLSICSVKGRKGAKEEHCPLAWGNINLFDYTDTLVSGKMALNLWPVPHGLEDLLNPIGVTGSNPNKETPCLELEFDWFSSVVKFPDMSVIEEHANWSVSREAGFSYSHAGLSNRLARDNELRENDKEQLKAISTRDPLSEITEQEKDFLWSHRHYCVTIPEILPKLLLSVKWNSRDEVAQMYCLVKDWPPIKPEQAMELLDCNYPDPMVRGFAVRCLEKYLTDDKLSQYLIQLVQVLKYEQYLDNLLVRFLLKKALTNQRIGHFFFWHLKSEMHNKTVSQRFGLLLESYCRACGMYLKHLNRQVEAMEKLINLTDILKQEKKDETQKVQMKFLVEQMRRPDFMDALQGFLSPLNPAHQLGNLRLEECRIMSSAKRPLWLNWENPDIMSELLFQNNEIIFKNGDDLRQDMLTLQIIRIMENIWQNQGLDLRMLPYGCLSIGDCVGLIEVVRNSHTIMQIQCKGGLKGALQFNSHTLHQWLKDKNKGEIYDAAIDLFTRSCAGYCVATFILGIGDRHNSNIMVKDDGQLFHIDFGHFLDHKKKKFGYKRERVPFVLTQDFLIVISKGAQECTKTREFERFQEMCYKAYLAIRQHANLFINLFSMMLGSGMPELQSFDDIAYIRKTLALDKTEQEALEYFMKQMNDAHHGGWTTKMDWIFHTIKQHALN
T1 sequence (P27986 whole entry partner): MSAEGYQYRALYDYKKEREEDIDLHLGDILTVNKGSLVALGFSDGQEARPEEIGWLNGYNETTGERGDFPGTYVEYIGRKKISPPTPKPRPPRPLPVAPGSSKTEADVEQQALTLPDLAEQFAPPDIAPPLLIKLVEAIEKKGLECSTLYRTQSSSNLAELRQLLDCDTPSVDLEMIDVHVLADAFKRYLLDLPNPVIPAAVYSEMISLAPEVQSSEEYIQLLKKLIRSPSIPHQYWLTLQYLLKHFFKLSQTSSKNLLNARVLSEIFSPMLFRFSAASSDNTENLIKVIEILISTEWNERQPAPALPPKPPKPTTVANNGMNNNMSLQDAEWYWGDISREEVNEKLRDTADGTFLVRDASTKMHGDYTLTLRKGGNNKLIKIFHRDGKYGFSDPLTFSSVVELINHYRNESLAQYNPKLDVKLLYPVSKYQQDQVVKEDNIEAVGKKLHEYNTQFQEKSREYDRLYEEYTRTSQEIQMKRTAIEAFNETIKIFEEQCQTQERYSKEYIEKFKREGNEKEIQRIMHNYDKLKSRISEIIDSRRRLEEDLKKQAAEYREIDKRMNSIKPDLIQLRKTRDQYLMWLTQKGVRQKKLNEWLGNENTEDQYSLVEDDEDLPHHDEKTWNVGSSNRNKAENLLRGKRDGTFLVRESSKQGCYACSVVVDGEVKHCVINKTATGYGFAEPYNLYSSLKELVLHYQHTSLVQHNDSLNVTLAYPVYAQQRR

- IC50: > 1000 nM
SMILES: CC(=O)Nc1cc(-c2nc(-c3ccccc3Cl)c(NC(C)=O)s2)ccn1 [Example C-1, N-{4-[5-(acetylamino)-4-(2-chlorophenyl)-1,3-thiazol-2-yl]pyridin-2-yl}acetamide]
